In BigSolDB 2.1:

O=C(Nc1ccccc1)c1ccccc1O
solubility (mole fraction)
Conditions	283.15 K	288.15 K	293.15 K	298.15 K	303.15 K	308.15 K	313.15 K	318.15 K	323.15 K
in acetonitrile	0.0129	0.0153	0.0181	0.0217	0.0258	0.0307	0.0359	0.0423	0.0485
in ethanol	0.0185	0.0207	0.0235	0.0273	0.0322	0.0366	0.0425	0.0487	0.0572
in ethyl acetate	0.0344	0.039	0.0432	0.0486	0.0554	0.0635	0.0709	0.0808	0.0892
in ethyl formate	0.0195	0.0219	0.0248	0.0293	0.0334	0.041	0.0488	0.0585	0.0681
in isopropanol	0.0169	0.0199	0.0225	0.0265	0.0315	0.036	0.041	0.0473	0.053
in isopropyl acetate	0.0281	0.031	0.0352	0.0389	0.0439	0.0502	0.0567	0.0638	0.0709
in methyl acetate	0.0366	0.0408	0.0443	0.05	0.0568	0.0658	0.0766	0.0879	0.101
in n-butanol	0.013	0.0155	0.0178	0.021	0.0247	0.0292	0.0346	0.0403	0.0467
in n-butyl acetate	0.028	0.0311	0.0349	0.0388	0.0435	0.049	0.0545	0.061	0.0686
in n-pentanol	0.014	0.0157	0.0181	0.0206	0.0238	0.0281	0.0338	0.0396	0.0459
in n-propanol	0.0134	0.0168	0.0199	0.0229	0.0266	0.0314	0.0363	0.0418	0.0479
in n-propyl acetate	0.0303	0.0347	0.0378	0.0435	0.0483	0.0542	0.0616	0.0703	0.0796
